We go through five compounds from article PMC11992225, “Antibacterial compounds against non-growing and intracellular bacteria” (npj Antimicrobials and Resistance, 2025).

SMILES strings stand for the structures. pEC50: −log10 of the molar value. In brackets after ≈: the same amount, converted by molar mass. Like-named read-outs stand apart in the source and are kept apart here.

Test [1] relates to S. flexneri 5a M90T. Description: MIC in tryptic soy broth, S. flexneri. It is filed as cell-based, Shigella flexneri. To be noted: for MIC: Shigella flexneri, 5AM90T, read-out: MIC (μM) TSB. Summed up:
(§1)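 MICs come from microdilution in CA-MHB/40 mM HEPES pH 7.4 for the UPEC, Pseudomonas and Staphylococcus strains, and in TSB for Shigella. UPEC also tested in LPM/30 mM MES pH 5.5.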

Test [2] relates to non-growing P. aeruginosa DSM1117. Description: Dilution-regrowth assay (OD600, start-growth-time) on stationary-phase P. aeruginosa. It is filed as cell-based, Pseudomonas aeruginosa. To be noted: Pseudomonas aeruginosa, DSM1117; P. aeruginosa; regrowth delay of non-growing bacteria, 1:4 CA-MHB pH 7.4, 24 h treatment, OD600 8 h after dilution; read-out: EC50. On the procedure: To determine the spectrum of activity of the compounds that were effective against non-growing UPEC, we further assessed their efficacy against the well-characterized Gram-negative and Gram-positive reference strains P. aeruginosa DSM1117 and S. aureus DSM2569, respectively. The cultures were grown and treated for 24 h in 1:4 CA-MHB (pH 7.4). […].
For better characterization of the compounds causing the strongest regrowth delay, we performed the regrowth step of the dilution-regrowth experiments on a plate reader, measuring the OD600 at 20-min intervals for over 20 h instead of using an endpoint measurement. This approach allowed us to capture the time when cultures reached a threshold optical density (start-growth-time, SGT[15]).
Overnight cultures of UPEC, P. aeruginosa and S. aureus were grown in test tubes containing 3 ml of LB broth (~16 h), then diluted 1:100 into either 1:4 diluted CA-MHB medium buffered with 40 mM HEPES (pH 7.4) or, in case of UPEC, into LPM medium[25] supplemented with 49 µM MgCl2 and buffered with 30 mM MES (pH 5.5). The cultures were incubated for 24 h in non-baffled Erlenmeyer flasks at 37 °C with shaking at 200 rpm.
For P. aeruginosa and S. aureus, dose–response analysis was conducted in 96-well plates with a 200 μl assay volume, following the procedure used for screening assay validation experiments. Aliquots of the 39 compounds active against non-growing UPEC were obtained from SelleckChem and MedChem Express. Stock solutions were prepared and stored according to the manufacturers’ instructions, then diluted in 10% DMSO before use. Cultures were incubated for 24 h in 1:4 diluted CA-MHB medium under the same conditions used for UPEC cultivation. In preliminary experiments, each compound was tested at a concentration of 20 μM in the dilution-regrowth assay with 4 technical replicates. Regrowth was monitored using a microplate reader at 37 °C with continuous shaking, and OD600 was recorded every 20 min. The time at which OD600 exceeded the threshold of 0.12 was recorded as the Start_Growth-Time.
The statistical analysis of all data, as well as EC50 and IC50 determination, was conducted using GraphPad Prism 10.2.3. Statistical significance of the drug effects was assessed using a one-way ANOVA followed by Dunnett’s test, comparing each treatment to the drug-free control. Statistical significance of the differences in chemical characteristics between the hit compounds and the Prestwick library was assessed using a Mann–Whitney test. Statistical significance was set at P ≤ 0.05. A five-parameter logistic equation was used for asymmetric sigmoidal curve fitting and for EC50 and IC50 determination. The Venn diagram in Fig. 1F was prepared using BioVenn web application. Characteristics of the chemical and physical properties of Prestwick library compounds were obtained from Supplementary Table S1 from reference. Characteristics of the hit compounds not included in the Prestwick library were retrieved from the PubChem database.

The test system of test [3] is E. coli CFT073 (UPEC). Description: MIC, standard microdilution assay, growing UPEC. It is filed as cell-based, Escherichia coli. To be noted: E. coli. Summed up: as §1
Test [4] relates to non-growing UPEC CFT073. Description: Dilution-regrowth assay (screen, hit validation, dose-response) on stationary-phase UPEC. The format is cell-based, Escherichia coli. To be noted: for Regrowth, OD600 at 6h or 8h after dilution into drug-free medium: average; for Regrowth: OD600 after dilution into drug-free medium (mean): OD600 at 6h or 8h. Summed up: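 Regrowth (OD600 after 6 h, 37 °C) of diluted non-growing CFT073, following 24 h compound treatment of 24 h stationary cultures, defines activity relative to untreated control. Screen at 20 µM, validation at 20, 10, 5 µM (duplicates), dose–response in three biological replicates fitted by five-parameter logistic.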

The subject of test [5] is P. aeruginosa DSM1117. The test can be described thus: MIC, standard microdilution assay, growing P. aeruginosa. The format is cell-based, Pseudomonas aeruginosa. The note with it: P. aeruginosa. Summed up:
as §1
Background: In broth dilution the organism is exposed to a series of concentrations in liquid medium.

For test [6], the system named is S. aureus DSM2569. The test can be described thus: MIC, standard microdilution assay, growing S. aureus. The format is cell-based, Staphylococcus aureus. The note with it: S. aureus, CA-MHB pH 7.4, read-out: MIC (μM) CA-MHB. Summed up:
as §1

Setting [7] is: Escherichia coli, LPM pH 5.5, read-out: MIC.
[8] abbreviates: Escherichia coli, pH 7.4, CA-MHB, read-out: MIC (μM) CA-MHB.
[9] abbreviates: Escherichia coli, E. coli, LPM pH 5.5, regrowth delay of non-growing bacteria, 24 h treatment, OD600 6 h after 2500-fold dilution, read-out: EC50.
[10] abbreviates: Pseudomonas aeruginosa, DSM1117, CA-MHB pH 7.4, read-out: MIC (μM) CA-MHB.
The mark [11] stands for this setting: E. coli in 1:4 CA-MHB (pH 7.4), concentration 0.25.
Where [12] appears, read: E. coli in 1:4 CA-MHB (pH 7.4), concentration 0.5.
[13] abbreviates: E. coli in 1:4 CA-MHB (pH 7.4), concentration 1.
[14] abbreviates: E. coli in 1:4 CA-MHB (pH 7.4), concentration 2.5.
Setting [15] is: E. coli in 1:4 CA-MHB (pH 7.4), concentration 5.
Where [16] appears, read: E. coli in 1:4 CA-MHB (pH 7.4), concentration 10.
Where [17] appears, read: E. coli in 1:4 CA-MHB (pH 7.4), concentration 30.
The mark [18] stands for this setting: E. coli in LPM (pH 5.5), concentration 0.25.
[19] abbreviates: E. coli in LPM (pH 5.5), concentration 0.5.
Setting [20] is: E. coli in LPM (pH 5.5), concentration 1.
The mark [21] stands for this setting: E. coli in LPM (pH 5.5), concentration 2.5.
The mark [22] stands for this setting: E. coli in LPM (pH 5.5), concentration 5.
Setting [23] is: E. coli in LPM (pH 5.5), concentration 10.
[24] abbreviates: E. coli in LPM (pH 5.5), concentration 30.
[25] abbreviates: Escherichia coli, pH 7.4, 1:4 diluted CA-MHB, read-out: MIC (μM) 1:4 CA-MHB.
Setting [26] is: Escherichia coli, LPM pH 5.5 (red curve), medium assigned by comparison with Dataset 1, read-out: EC50 (regrowth inhibition curve, Fig. S4).

Regarding `CC1Sc2c(C(=O)O)c(=O)c3cc(F)c(N4CCNCC4)cc3n21` (centres unmarked) [Ulifloxacin], the MIC (usually the smallest concentration in the dilution series that meets the test's criterion for growth inhibition) in test [1] turned out to be 0.0312 µM (≈ 0.0109 µg/mL); in test [3] (setting [7]), 0.125 µM (≈ 0.0437 µg/mL); in test [3] (setting [8]), 0.025 µM (≈ 0.00873 µg/mL); in test [5] (Pseudomonas aeruginosa, DSM1117, 1:4 diluted CA-MHB pH 7.4, read-out: MIC (μM) 1:4 CA-MHB), 0.5 µM (≈ 0.175 µg/mL); in test [5] (setting [10]), 0.5 µM (≈ 0.175 µg/mL); in test [6] (Staphylococcus aureus, DSM2569), 1 µM (≈ 0.349 µg/mL). Further, the pEC50 (as a rule, the negative decadic logarithm of the EC50, by convention in mol/L) in test [2] was 7.09; in test [4] (setting [9]), 5.06; in test [4] (Escherichia coli, E. coli, pH 7.4, regrowth delay of non-growing bacteria, 1:4 CA-MHB, 24 h treatment, OD600 6 h after 2500-fold dilution, read-out: EC50), 6.34.

Consider `CC1COc2c(N3CCN(C)CC3)c(F)cc3c(=O)c(C(=O)O)cn1c23` (centres unmarked) [Ofloxacin], for which the MIC in test [1] stood at 0.125 µM (≈ 0.0452 µg/mL); in test [3] (setting [8]), 0.25 µM (≈ 0.0903 µg/mL); in test [5] (setting [10]), 8 µM (≈ 2.89 µg/mL); in test [6] (Staphylococcus aureus, DSM2569), 2 µM (≈ 0.723 µg/mL). Also, the “Regrowth, OD600 at 6h or 8h after dilution into drug-free medium” value amounted to 0.670 in test [4] (setting [11]); 0.686 in test [4] (setting [12]); 0.685 in test [4] (setting [13]); 0.648 in test [4] (setting [14]); 0.610 in test [4] (setting [15]); 0.563 in test [4] (setting [16]). Also, the “Regrowth, OD600 at 6h or 8h after dilution into drug-free medium” value in test [4] (setting [17]) is 0.271; in test [4] (setting [18]) it was 0.591; in test [4] (setting [19]), 0.585; in test [4] (setting [20]), 0.589; in test [4] (setting [21]), 0.574; in test [4] (setting [22]), 0.582. Moreover, the “Regrowth, OD600 at 6h or 8h after dilution into drug-free medium” value in test [4] (setting [23]) worked out at 0.564; in test [4] (setting [24]), 0.570.

For `CO[C@H]1/C=C/O[C@@]2(C)Oc3c(C)c(O)c4c(O)c(c(/C=N/N5CCN(C)CC5)c(O)c4c3C2=O)NC(=O)/C(C)=C\C=C\[C@H](C)[C@H](O)[C@@H](C)[C@@H](O)[C@@H](C)[C@H](OC(C)=O)[C@@H]1C` [Rifampicin], the MIC in test [1] worked out at 8 µM (≈ 6.58 µg/mL); in test [3] (setting [7]), 0.5 µM (≈ 0.411 µg/mL); in test [3] (setting [25]), 5 µM (≈ 4.11 µg/mL); in test [3] (setting [8]), 8 µM (≈ 6.58 µg/mL); in test [5] (setting [10]), 80 µM (≈ 65.8 µg/mL); in test [6] (Staphylococcus aureus, DSM2569), 0.0125 µM (≈ 0.0103 µg/mL). In addition, in test [3] (pH 7.4, CA-MHB with 10 μg/ml efflux pump inhibitor PaβN), the “MIC (μM) CA-MHB +PAβN” value amounted to 1 µM (≈ 0.823 µg/mL). For the same compound, the pEC50 was 6.02 in test [4] (setting [9]) and 6.01 in test [4] (setting [26]).

As for `CO[C@H]1/C=C/O[C@@]2(C)Oc3c(C)c(O)c4c(O)c(c(/C=N/N5CCN(C6CCCC6)CC5)c(O)c4c3C2=O)NC(=O)/C(C)=C\C=C\[C@H](C)[C@H](O)[C@@H](C)[C@@H](O)[C@@H](C)[C@H](OC(C)=O)[C@@H]1C` [Rifapentine], the MIC in test [1] came out at 16 µM (≈ 14 µg/mL); in test [3] (setting [7]), 0.25 µM (≈ 0.219 µg/mL); in test [3] (setting [25]), 5 µM (≈ 4.39 µg/mL); in test [3] (setting [8]), 8 µM (≈ 7.02 µg/mL); in test [5] (setting [10]), 80 µM (≈ 70.2 µg/mL); in test [6] (Staphylococcus aureus, DSM2569), 0.0125 µM (≈ 0.011 µg/mL). Further, the “Regrowth: OD600 after dilution into drug-free medium (mean)” value in test [4] (setting [11]) amounted to 0.612; in test [4] (setting [12]), 0.591; in test [4] (setting [13]), 0.589; in test [4] (setting [14]), 0.581; in test [4] (setting [15]), 0.558; in test [4] (setting [16]) it was 0.549. The “Regrowth: OD600 after dilution into drug-free medium (mean)” value in test [4] (setting [17]) amounted to 0.527; in test [4] (setting [18]), 0.548; in test [4] (setting [19]) it was 0.505; in test [4] (setting [20]) it was 0.379; in test [4] (setting [21]), 0.232; in test [4] (setting [22]) it was 0.178. Moreover, the “Regrowth: OD600 after dilution into drug-free medium (mean)” value in test [4] (setting [23]) was determined as 0.148; in test [4] (setting [24]), 0.112. Also, the figures for the pEC50 in test [4] (setting [9]) and in test [4] (setting [26]) were 5.93 and 5.92, respectively.

Regarding `N#Cc1c(N2C[C@@H]3NCCO[C@H]3C2)c(F)cc2c(=O)c(C(=O)O)cn(C3CC3)c12` [Finafloxacin], the “MIC (μM) TSB” value in test [1] (S. flexneri, extracellular bacteria in TSB) came to 0.125 µM (≈ 0.0498 µg/mL). The MIC amounted to 0.007812 µM (≈ 0.00311 µg/mL) in test [3] (LPM pH 5.5, read-out: MIC); 0.25 µM (≈ 0.0996 µg/mL) in test [3] (pH 7.4, CA-MHB, read-out: MIC (μM) CA-MHB); 20 µM (≈ 7.97 µg/mL) in test [5] (CA-MHB pH 7.4, read-out: MIC (μM) CA-MHB); 0.5 µM (≈ 0.199 µg/mL) in test [6]. Besides, the pEC50 in test [4] (E. coli, LPM pH 5.5, regrowth delay of non-growing bacteria, 24 h treatment, OD600 6 h after 2500-fold dilution, read-out: EC50) is 4.87; in test [4] (E. coli, pH 7.4, regrowth delay of non-growing bacteria, 1:4 CA-MHB, 24 h treatment, OD600 6 h after 2500-fold dilution, read-out: EC50), 5.14.
